Measurements: US8969516B2, “Method of hydrolysis of peptide bond” (priority 2006, dated 2015)

Assay: MALDI-TOF screening of Ni^2+ dependent hydrolysis in a combinatorial peptide library
Assay type: physicochemical
Details: CH3CO-Gly-Ala-Thr-X-His-Z-Lys-Phe-Leu-NH2 library, Ni^2+ 2 mM, pH 8.2, 10 mM Tris, score=24/tm
Procedure, shortened: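 Ni2+ 2 mM, peptide pool 1 mM (total), 10 mM Tris pH 8.2; 37 °C and 45 °C in parallel; MS aliquots at 2/4/6/8 h; products detected visually. X: all proteinogenic residues except Asp, Glu, Cys; Z: all except Cys.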

| Substance | hydrolysis score from MALDI-TOF screening (37° C.) | hydrolysis score from MALDI-TOF screening (45° C.) |
| --- | --- | --- |
| Ac-GATGHSKFL-NH2 [TGHS] | 0 (a score of 0 if no trace of the product of hydrolysis was seen after 8 hours of incubation) | 0 (a score of 0 if no trace of the product of hydrolysis was seen after 8 hours of incubation) |
| Ac-GATGHTKFL-NH2 [TGHT] | 0 (a score of 0 if no trace of the product of hydrolysis was seen after 8 hours of incubation) | 0 (a score of 0 if no trace of the product of hydrolysis was seen after 8 hours of incubation) |
| Ac-GATGHVKFL-NH2 [TGHV] | 0 (a score of 0 if no trace of the product of hydrolysis was seen after 8 hours of incubation) | 0 (a score of 0 if no trace of the product of hydrolysis was seen after 8 hours of incubation) |
| Ac-GATGHWKFL-NH2 [TGHW] | 0 (a score of 0 if no trace of the product of hydrolysis was seen after 8 hours of incubation) | 0 (a score of 0 if no trace of the product of hydrolysis was seen after 8 hours of incubation) |
| Ac-GATGHYKFL-NH2 [TGHY] | 0 (a score of 0 if no trace of the product of hydrolysis was seen after 8 hours of incubation) | 0 (a score of 0 if no trace of the product of hydrolysis was seen after 8 hours of incubation) |
| Ac-GATHHAKFL-NH2 [THHA] | 0 (a score of 0 if no trace of the product of hydrolysis was seen after 8 hours of incubation) | 4 (a score of 4 for detection at 6 hours) |
| Ac-GATHHDKFL-NH2 [THHD] | 0 (a score of 0 if no trace of the product of hydrolysis was seen after 8 hours of incubation) | 0 (a score of 0 if no trace of the product of hydrolysis was seen after 8 hours of incubation) |
| Ac-GATHHEKFL-NH2 [THHE] | 0 (a score of 0 if no trace of the product of hydrolysis was seen after 8 hours of incubation) | 0 (a score of 0 if no trace of the product of hydrolysis was seen after 8 hours of incubation) |
| Ac-GATHHFKFL-NH2 [THHF] | 0 (a score of 0 if no trace of the product of hydrolysis was seen after 8 hours of incubation) | 6 (a score of 6 for detection at 4 hours) |
| Ac-GATHHGKFL-NH2 [THHG] | 0 (a score of 0 if no trace of the product of hydrolysis was seen after 8 hours of incubation) | 4 (a score of 4 for detection at 6 hours) |
| Ac-GATHHHKFL-NH2 [THHH] | 3 (a score of 3 for detection at 8 hours) | 4 (a score of 4 for detection at 6 hours) |
| Ac-GATHHIKFL-NH2 [THHI] | 3 (a score of 3 for detection at 8 hours) | 12 (a score of 12, if it was seen to be partially hydrolysed at 2 hours) |
| Ac-GATHHKKFL-NH2 [THHK] | 6 (a score of 6 for detection at 4 hours) | 12 (a score of 12, if it was seen to be partially hydrolysed at 2 hours) |
| Ac-GATHHLKFL-NH2 [THHL] | 3 (a score of 3 for detection at 8 hours) | 12 (a score of 12, if it was seen to be partially hydrolysed at 2 hours) |
| Ac-GATHHMKFL-NH2 [THHM] | 0 (a score of 0 if no trace of the product of hydrolysis was seen after 8 hours of incubation) | 4 (a score of 4 for detection at 6 hours) |
| Ac-GATHHNKFL-NH2 [THHN] | 0 (a score of 0 if no trace of the product of hydrolysis was seen after 8 hours of incubation) | 0 (a score of 0 if no trace of the product of hydrolysis was seen after 8 hours of incubation) |
| Ac-GATHHPKFL-NH2 [THHP] | 0 (a score of 0 if no trace of the product of hydrolysis was seen after 8 hours of incubation) | 0 (a score of 0 if no trace of the product of hydrolysis was seen after 8 hours of incubation) |
| Ac-GATHHRKFL-NH2 [THHR] | 6 (a score of 6 for detection at 4 hours) | 6 (a score of 6 for detection at 4 hours) |
| Ac-GATHHSKFL-NH2 [THHS] | 0 (a score of 0 if no trace of the product of hydrolysis was seen after 8 hours of incubation) | 4 (a score of 4 for detection at 6 hours) |
| Ac-GATHHTKFL-NH2 [THHT] | 0 (a score of 0 if no trace of the product of hydrolysis was seen after 8 hours of incubation) | 4 (a score of 4 for detection at 6 hours) |

| Substance | hydrolysis score from MALDI-TOF screening (37° C.) | hydrolysis score from MALDI-TOF screening (45° C.) |
| --- | --- | --- |
| Ac-GATHHVKFL-NH2 [THHV] | 0 (a score of 0 if no trace of the product of hydrolysis was seen after 8 hours of incubation) | 6 (a score of 6 for detection at 4 hours) |
| Ac-GATHHWKFL-NH2 [THHW] | 12 (a score of 12, if it was seen to be partially hydrolysed at 2 hours) | 12 (a score of 12, if it was seen to be partially hydrolysed at 2 hours) |
| Ac-GATHHYKFL-NH2 [THHY] | 0 (a score of 0 if no trace of the product of hydrolysis was seen after 8 hours of incubation) | 6 (a score of 6 for detection at 4 hours) |
| Ac-GATIHAKFL-NH2 [TIHA] | 0 (a score of 0 if no trace of the product of hydrolysis was seen after 8 hours of incubation) | 0 (a score of 0 if no trace of the product of hydrolysis was seen after 8 hours of incubation) |
| Ac-GATIHDKFL-NH2 [TIHD] | 0 (a score of 0 if no trace of the product of hydrolysis was seen after 8 hours of incubation) | 0 (a score of 0 if no trace of the product of hydrolysis was seen after 8 hours of incubation) |
| Ac-GATIHFKFL-NH2 [TIHF] | 0 (a score of 0 if no trace of the product of hydrolysis was seen after 8 hours of incubation) | 0 (a score of 0 if no trace of the product of hydrolysis was seen after 8 hours of incubation) |
| Ac-GATIHGKFL-NH2 [TIHG] | 0 (a score of 0 if no trace of the product of hydrolysis was seen after 8 hours of incubation) | 0 (a score of 0 if no trace of the product of hydrolysis was seen after 8 hours of incubation) |
| Ac-GATIHHKFL-NH2 [TIHH] | 0 (a score of 0 if no trace of the product of hydrolysis was seen after 8 hours of incubation) | 0 (a score of 0 if no trace of the product of hydrolysis was seen after 8 hours of incubation) |
| Ac-GATIHIKFL-NH2 [TIHI] | 0 (a score of 0 if no trace of the product of hydrolysis was seen after 8 hours of incubation) | 0 (a score of 0 if no trace of the product of hydrolysis was seen after 8 hours of incubation) |
| Ac-GATIHKKFL-NH2 [TIHK] | 0 (a score of 0 if no trace of the product of hydrolysis was seen after 8 hours of incubation) | 3 (a score of 3 for detection at 8 hours) |
| Ac-GATIHLKFL-NH2 [TIHL] | 0 (a score of 0 if no trace of the product of hydrolysis was seen after 8 hours of incubation) | 0 (a score of 0 if no trace of the product of hydrolysis was seen after 8 hours of incubation) |
| Ac-GATIHNKFL-NH2 [TIHN] | 0 (a score of 0 if no trace of the product of hydrolysis was seen after 8 hours of incubation) | 0 (a score of 0 if no trace of the product of hydrolysis was seen after 8 hours of incubation) |
| Ac-GATIHPKFL-NH2 [TIHP] | 0 (a score of 0 if no trace of the product of hydrolysis was seen after 8 hours of incubation) | 0 (a score of 0 if no trace of the product of hydrolysis was seen after 8 hours of incubation) |
| Ac-GATIHQKFL-NH2 [TIHQ] | 0 (a score of 0 if no trace of the product of hydrolysis was seen after 8 hours of incubation) | 0 (a score of 0 if no trace of the product of hydrolysis was seen after 8 hours of incubation) |
| Ac-GATIHRKFL-NH2 [TIHR] | 0 (a score of 0 if no trace of the product of hydrolysis was seen after 8 hours of incubation) | 3 (a score of 3 for detection at 8 hours) |
| Ac-GATIHSKFL-NH2 [TIHS] | 0 (a score of 0 if no trace of the product of hydrolysis was seen after 8 hours of incubation) | 0 (a score of 0 if no trace of the product of hydrolysis was seen after 8 hours of incubation) |
| Ac-GATIHTKFL-NH2 [TIHT] | 0 (a score of 0 if no trace of the product of hydrolysis was seen after 8 hours of incubation) | 0 (a score of 0 if no trace of the product of hydrolysis was seen after 8 hours of incubation) |
| Ac-GATIHWKFL-NH2 [TIHW] | 3 (a score of 3 for detection at 8 hours) | 3 (a score of 3 for detection at 8 hours) |
| Ac-GATIHYKFL-NH2 [TIHY] | 0 (a score of 0 if no trace of the product of hydrolysis was seen after 8 hours of incubation) | 0 (a score of 0 if no trace of the product of hydrolysis was seen after 8 hours of incubation) |
